Experimental data as given in the METLIN SMRT retention time set (Domingo-Almenara et al. 2019).

Assay: gradient 5% acetonitrile 3 min, to 50% in 2 min, to 85% in 15 min, held 3 min, 100 µL/min
Details: column: Zorbax Extend-C18 2.1 x 50 mm; eluents: water / acetonitrile, 0.1% formic acid
Summary of the method: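 Values are retention times taken from adduct peaks that software picked and an analyst inspected. The pure standards were run as mixtures of ~100 molecules on HPLC linked to a quadrupole time-of-flight mass spectrometer, in positive and negative ionization mode. A Zorbax Extend-C18 column (2.1 × 50 mm, 1.8 μm) was used at 100 μL/min with water and acetonitrile, each including 0.1% formic acid.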

| Structure (SMILES) | RP-LC retention time [s] |
| --- | --- |
| COc1cc(OC)c(NC(=O)C2=C(C)C(=O)OC23CCN(C(C)C)CC3)cc1Cl | 654 |
| O=C(CCC(=O)N1c2ccccc2NC2=C(C(=O)CCC2)C1c1ccco1)Nc1ccccc1 (centres undefined) | 744 |
| c1ccc(CSc2ccc(-c3ccc4c(c3)OCO4)nn2)nc1 | 617 |
| Cc1ccc(N2CCC(NC(=O)NCCc3ccccc3)C2=O)cc1C (centres undefined) | 790 |
| Cc1ccccc1-n1c(=O)c2sccc2n(Cc2nc(-c3ccc(C(F)(F)F)cc3)no2)c1=O | 1120 |
| O=C(NCCN1CCOCC1)c1ccc(-c2ccc(N3CCSCC3)nc2)cc1 | 568 |
| Cc1ccc(NC(=O)Cn2c(N)nc(C)cc2=O)c(C)c1 | 617 |
| CC(C)S(=O)(=O)c1cccc(-c2nnc(N)o2)c1 | 589 |
| COc1ccccc1-c1cc(C(=O)N2CCN(c3ncccn3)CC2)c2ccccc2n1 | 803 |
| COc1cccc(N2CCN(c3ccnc(SCC(=O)Nc4c(C)cc(C)cc4C)n3)CC2)c1 | 861 |
| COc1ccc(OC)c(NC(=O)C2CCN(c3cc(N4CCSCC4)ncn3)CC2)c1 | 694 |
| COc1ccc(CCNS(=O)(=O)c2cc3c4c(c2)CCC(=O)N4CCC3)cc1OC | 766 |
| COc1ccc(Cl)cc1NC(=O)C1CCCN(C(=O)c2cc(-c3ccccn3)n[nH]2)C1 (centres undefined) | 771 |
| O=C(Nc1ccc2c(c1)OCCO2)C(=O)c1cn(CC(=O)N2CCOCC2)c2ccccc12 | 850 |
| CC(NC(=O)c1ccco1)c1nc(-c2ccc(N3CCCC3)cc2)no1 (centres undefined) | 941 |
| COc1ccc(-c2noc(C3CC(=O)N(c4ccc(OC)c(OC)c4)C3)n2)c(OC)c1 (centres undefined) | 786 |
| COc1ccc(S(=O)(=O)Nc2cc(-c3cn4ccc(C)cc4n3)ccc2C)cc1OC | 652 |
| CCCCOc1ccc(C(=O)NCCc2cn3ccc(C)cc3n2)cc1 | 588 |
| Cn1c(CN2CCN(C(=O)COc3ccc(F)cc3)CC2)nc2ccccc21 | 581 |
| Cc1nnc(-c2cn(CC(=O)NCCC3=CCCCC3)c3ccccc23)o1 | 803 |
| O=C(CN1C(=O)COc2ccc(C(=O)N3CCCC3)cc21)NCCc1ccc(Cl)cc1 | 765 |
| c1cncc(CN2CCC(n3ncc4c(N5CCOCC5)nc(-c5ccc6[nH]ccc6c5)nc43)CC2)c1 | 675 |
| Cc1cccc(NC(=O)C(C)n2cnc3nc4c(cc3c2=O)CCCC4)c1C (centres undefined) | 765 |

| Structure (SMILES) | RP-LC retention time [s] |
| --- | --- |
| COc1cccc(N2CCN(C3=Nc4c(F)cccc4[C@H](CC(=O)O)N3c3cc(C(F)(F)F)ccc3OC)CC2)c1 | 899 |
| CC(C(=O)O)c1ccc(N2Cc3ccccc3C2=O)cc1 (centres undefined) | 828 |
| CCN1C(=O)CCc2cc(NC(=O)CCc3ccccc3OC)ccc21 | 787 |
| Cc1ccc(-c2ncccc2CNS(=O)(=O)c2cccs2)cc1 | 675 |
| COc1ccc(Cn2nc3ccc(S(=O)(=O)N4CCCC4)cn3c2=O)cc1F | 862 |
| Cc1nc2c(sc3nc(-c4ccccc4)ccc32)c(=O)n1CC(=O)NCCc1ccc(Cl)cc1 | 1080 |
| CCOc1ccc(NC(=O)c2cn(C)nc2S(=O)(=O)N2CCC(C)CC2)cc1 | 1060 |
| Clc1ccc(-c2nc3cnccn3c2Nc2cccc(Cl)c2)cc1 | 1060 |
| COc1ccccc1S(=O)(=O)NCCc1ccsc1 | 824 |
| CCCNc1cc(C)nc2nc(-c3ccc(C(C)(C)C)cc3)nn12 | 1000 |
| CN(C)CCn1nnc2cc(-c3noc(-c4cccc(C#N)c4)n3)ccc21 | 633 |
| Cc1cc(C)n(CCC(=O)NCC2Cn3cccc3C(=O)N2C)n1 (centres undefined) | 593 |
| COc1ccc(NS(=O)(=O)c2cc3c(s2)CCN(C(=O)C2CCC2)C3)cc1 | 831 |
| Cc1ccccc1-n1ccn(Cc2nc(-c3cccc(F)c3)no2)c(=O)c1=O | 837 |
| O=C(Cc1ccccc1Cl)N1CCN(S(=O)(=O)C2CC2)CC1 | 733 |
| COc1ccc(-c2noc(-c3ccc(NCCCN4CCC(N5CCCCC5)CC4)nn3)n2)cc1 | 603 |
| O=C(NCc1cscn1)C1CCN(S(=O)(=O)c2cccc(Cl)c2)CC1 | 747 |
| Cc1ccnc(NC(=O)C2CC(=O)N(c3n[nH]c4ccccc34)C2)c1 (centres undefined) | 592 |
| COc1cccc(C(=O)NCC(=O)Nc2nc3ccccc3[nH]2)c1 | 624 |
| CCCCCCC(=O)Nc1nc(-c2ccc(C)cc2)cs1 | 1190 |
| CCN(CC)c1ccc(NC(=O)CSc2cc(N3CCCC3)ncn2)c(C)c1 | 600 |
| Cc1ccc(-c2nnc(Cc3nc(-c4cccc(Cl)c4)no3)o2)cc1C | 1230 |
| O=C(C1=CN(c2cccc(Br)c2)c2cc(F)ccc2S1(=O)=O)N1CCCC1 | 863 |

| Structure (SMILES) | RP-LC retention time [s] |
| --- | --- |
| COc1ccc(NC(=O)C2=Cc3cc(OC)ccc3OC=C2)cc1 | 976 |
| COc1cc(N2CCN(S(=O)(=O)c3ccccc3F)CC2)nc(OC)n1 | 816 |
| N#CCn1cccc1-c1nc(-c2ccncc2)no1 | 685 |
| Cc1ccc(-c2nc(C3CCN(S(=O)(=O)c4ccc5c(c4)CCC5)CC3)no2)cc1 | 1310 |
| Cc1cc(NCc2ccccn2)n2c(nc3ccccc32)c1C#N | 590 |
| Cc1sc(NC(=O)c2ccccc2)nc1-c1ccc2c(c1)NC(=O)C(C)O2 (centres undefined) | 931 |
| CNC(=O)CCc1nc2ccccc2n(CC(=O)NCCCc2ccccc2)c1=O | 704 |
| CCn1c(C(=O)NCCc2ccc(OC)c(OC)c2)cc2sc(Cl)cc21 | 1030 |
| CC(=O)c1cccc(NC2=NS(=O)(=O)C(c3cccc(Cl)c3)=C2C)c1 | 902 |
| O=C(Nc1c(-c2ccc(F)cc2)nc2ccccn12)c1cccc(F)c1 | 674 |
| O=C(N[C@H]1C[C@@H]2C[C@H]1N(C(=O)Nc1ccc3c(c1)CCC3)C2)c1ccccc1 | 950 |
| Nc1c(C(=O)c2ccccc2)sc2[nH]c(=O)c(C(=O)O)cc12 | 733 |
| O=C(c1csc(N2CCN(c3ccc(F)cc3)CC2)n1)N1CCOCC1 | 954 |
| CN1CCN(CCCNC(=O)Cn2c(=O)c3cccn3c3ccc(F)cc32)CC1 | 589 |
| O=C(Nc1nc2c(s1)CCCC2C(=O)NCc1ccco1)c1ccc2c(c1)OCO2 (centres undefined) | 789 |
| COc1ccc(N2C=C(C(=O)N3CCCC3)S(=O)(=O)c3ccc(Cl)cc32)cc1OC | 816 |
| COc1ccc(-c2cn3c(CC(=O)Nc4ccc(F)cc4Cl)csc3n2)cc1OC | 766 |
| CN1CCN(CCNC(=O)CC2CCN(C(=O)c3cc4cc(Cl)ccc4[nH]3)CC2)CC1 | 618 |
| Cc1ccc(NC(=O)Nc2ccc3c(c2)CCN3S(=O)(=O)c2ccccc2)cc1C | 1030 |
| CCCCNC(=O)CCC(=O)N1CC2CCCN2c2ccccc21 (centres undefined) | 837 |
| COc1ccc(N2CCN(C(=O)c3cn4c(n3)COCC4)CC2)cc1 | 598 |
| Cc1ccc(C(=O)NCc2nc(-c3ccc4c(c3)nnn4C3CCCC3)no2)cc1 | 969 |
| CCOC(=O)c1cc(S(=O)(=O)N2CCCC2C(=O)NC(C)(C)CC)cn1C (centres undefined) | 931 |

| Structure (SMILES) | RP-LC retention time [s] |
| --- | --- |
| CCc1ccc2c(-c3cccc(Cl)c3)nc(=O)n(CC)c2n1 | 1120 |
| Cc1oc2c(c1C(=O)N1CCN(c3cccc(C(F)(F)F)c3)CC1)C1=NCCN1C=N2 | 692 |
| O=C(NC1CC(=O)N(C2CC2)C1)c1cc(-c2ccccc2)n[nH]1 (centres undefined) | 607 |
| Cc1noc(-c2ccc(-n3ncc(C(=O)NCCc4c[nH]c5ccccc45)c3C)nc2)n1 | 898 |
| COCC(=O)Nc1cnc(-c2ccc(OC)cc2)nc1 | 724 |
| CCCc1noc(-c2ccc(-n3ncc(C(=O)NC4CC4)c3C)nc2)n1 | 865 |
| COc1cccc(NC(=O)N2CCN(c3cnn4c(C)nnc4c3)CC2)c1 | 616 |
| O=C(CSc1nc2ccsc2c(=O)n1-c1ccccc1)Nc1ncn[nH]1 | 655 |
| CCN(CC)CCCNC(=O)c1cc2n(n1)CC(C)(C(=O)NCc1ccc(F)cc1)N(C)C2=O (centres undefined) | 596 |
| CC(=O)N1CCc2cc(N3CC(C(=O)Nc4cccc(C(F)(F)F)c4)CC3=O)ccc21 (centres undefined) | 791 |
| Cn1nc(C(=O)N2CCCC(C(=O)NC3CC3)C2)c2c1CCN(C(=O)COc1ccccc1)C2 (centres undefined) | 644 |
| COc1ccc(-c2nc(-c3ccc4nncn4c3)no2)c(OC)c1 | 800 |
| O=C(c1ccco1)N1CCCn2nc(-c3ccncc3)cc2C1 | 560 |
| CCOC(=O)c1ccc(NC(=O)N2CCCC2c2c(C)noc2C)cc1 (centres undefined) | 801 |
| O=C(Nc1cc(-c2ccsc2)no1)c1ccc(Cl)s1 | 1030 |
| Cc1ccc(C(=O)CSc2ccc(NC(=O)C(C)C)nn2)c(C)c1 | 890 |
| COc1ccc(Cl)cc1NC(=O)N1CC2CC1C(=O)O2 (centres undefined) | 699 |
| CCCCOC(=O)C1=CN(Cc2ccccc2)S(=O)(=O)N=C1C | 1080 |
| Cc1nc2nc(-c3ccccc3)nn2c(C)c1CC(=O)N1CCC(C)CC1 | 846 |
| Cc1ccc(NC(=O)Cn2c(=O)n(-c3ccc(F)cc3)c3ncccc32)cc1 | 880 |
